# According to patent publication US20210002231A1 (Centre National de la Recherche Scientifique, priority 2018, published 2021):
# Starred links: 1 amine or outer side, 2 acyl side, 3 side chain; linkers in the order of their positions; H or OH if unused. Non-standard residues stand in square brackets, D forms with d. Residues, ends and D or L forms follow the SMILES beside them. *: point of attachment. Nva(5-(4-Bn-piperidin-1-yl)) = N[C@@H](CCCN1CCC(Cc2ccccc2)CC1)C(=O)O; X1 = O=C1[C@@H](N[*:1])Cc2ccccc2CN1CCC(=O)[*:2]; Dmt = Cc1cc(O)cc(C)c1C[C@H](N)C(=O)O; X2 = c1ccc2[nH]c(*)nc2c1; X3 = c1ccc2oc(*)nc2c1; X4 = c1ccc2sc(*)nc2c1
# Assays:
# human NPFF1R [1] = target: T1, human NPFF1R (Homo sapiens, UniProt Q9GZQ6); experiment: Radioligand competition binding with [125I]-1-DMe-NPFF; design: expressed in transfected cells; HEK293-Glo20F cells (cAMP)
# NPFF2R [2] = target: T2, NPFF2R (Homo sapiens, UniProt Q9Y5X5); experiment: as above; design: expressed in transfected cells; HEK293-Glo20F cells (cAMP)
# human MOPr [3] = target: T3, human MOPr (Homo sapiens, UniProt P35372); experiment: cell-based; type: cell-based; design: expressed in transfected cells; HEK293-Glo20F cells (cAMP); conditions: for EC50: read-out: MOPr (cAMP) EC50; for Emax: read-out: MOPr (cAMP) Emax
# Experimental: (§1) Stimulation by endogenous RF-amide peptides or test compounds for [^35S]-GTPγS binding to membranes from CHO cells expressing human NPFF1R or NPFF2R, were examined as reported. 1.6. Glo-Sensor cAMP Assay cAMP accumulation assay was essentially done as described with the following modifications: HEK293 cells stably expressing cAMP Glosensor-20F were used, with or without additional stable expression of each individual opioid receptor or NPFF1R. The cAMP responses were measured in presence of D-luciferin (1 mM).
# NPFF2R [4] = target: T2, NPFF2R; experiment: Glo-sensor cAMP assay, agonist and antagonist mode; type: cell-based; design: expressed in transfected cells; HEK293-Glo20F cells (cAMP); conditions: evaluated at 0.5 and 5 μM
# human MOPr [5] = target: T3, human MOPr; experiment: BRET1 β-arrestin-2 recruitment assay; type: cell-based; design: expressed in transfected cells; host or cells: HEK293 cells stably expressing eYFP-β-arrestin-2, transiently transfected with the Rluc8-MOP plasmid; conditions: for EC50: Table 3B, — = non-detectable recruitment, read-out: MOPr (β-arrestin-2) EC50; for Emax: read-out: MOPr (β-arrestin-2) Emax;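 as to MOPr (β-arrestin-2) Emax: Emax relative to maximal DAMGO-induced BRET as 100%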
# Experimental: Peak response amplitudes were normalized to basal and maximal (cells permeabilized with 20 μM digitonin) fluorescence levels. 1.8. β-Arrestin-2 recruitment assay The β-arrestin-2 recruitment assay was performed as described [34; 45] with minor modifications. Briefly, two days prior the experiment, HEK293 cells stably expressing eYFP-tagged β-arrestin-2 were transfected with the plasmid encoding Rluc8-MOP receptor. β-Arrestin-2 recruitment was measured at 37° C. in presence of 5 μM Coelenterazine H, 5 min after agonist addition.
# NPFF2R [6] = target: T2, NPFF2R; experiment: [35S]-GTPγS binding assay; type: biochemical; design: expressed in transfected cells
# Experimental: as §1
# human NPFF1R [7] = target: T1, human NPFF1R; experiment: [35S]-GTPγS binding assay; type: biochemical; design: expressed in transfected cells; conditions: for Emax: relative to RFRP3
# Experimental: as §1
# human MOPr [8] = target: T3, human MOPr; experiment: Radioligand competition binding with [3H]-diprenorphine; design: expressed in transfected cells; HEK293-Glo20F cells (cAMP)
# [9] = Table 3a, HEK293-Glo20F-hMOPr cells
# 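For MOPr (cAMP) Emax in this document: Emax relative to DAMGO as 100%.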
# T2 sequence (Q9Y5X5 whole entry): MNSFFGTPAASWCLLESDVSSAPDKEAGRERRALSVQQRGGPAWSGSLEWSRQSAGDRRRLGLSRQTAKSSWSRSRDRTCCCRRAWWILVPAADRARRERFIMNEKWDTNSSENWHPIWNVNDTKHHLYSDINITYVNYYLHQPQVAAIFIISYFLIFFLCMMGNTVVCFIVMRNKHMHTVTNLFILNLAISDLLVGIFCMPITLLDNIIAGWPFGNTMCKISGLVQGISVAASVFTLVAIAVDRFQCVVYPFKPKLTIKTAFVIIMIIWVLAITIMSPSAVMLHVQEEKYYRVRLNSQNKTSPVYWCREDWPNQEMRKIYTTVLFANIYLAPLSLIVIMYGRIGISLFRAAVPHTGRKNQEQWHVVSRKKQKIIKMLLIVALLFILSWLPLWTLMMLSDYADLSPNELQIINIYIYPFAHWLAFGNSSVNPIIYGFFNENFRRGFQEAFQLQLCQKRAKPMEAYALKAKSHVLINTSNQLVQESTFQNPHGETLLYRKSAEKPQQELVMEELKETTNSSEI
# T3 sequence (P35372 whole entry): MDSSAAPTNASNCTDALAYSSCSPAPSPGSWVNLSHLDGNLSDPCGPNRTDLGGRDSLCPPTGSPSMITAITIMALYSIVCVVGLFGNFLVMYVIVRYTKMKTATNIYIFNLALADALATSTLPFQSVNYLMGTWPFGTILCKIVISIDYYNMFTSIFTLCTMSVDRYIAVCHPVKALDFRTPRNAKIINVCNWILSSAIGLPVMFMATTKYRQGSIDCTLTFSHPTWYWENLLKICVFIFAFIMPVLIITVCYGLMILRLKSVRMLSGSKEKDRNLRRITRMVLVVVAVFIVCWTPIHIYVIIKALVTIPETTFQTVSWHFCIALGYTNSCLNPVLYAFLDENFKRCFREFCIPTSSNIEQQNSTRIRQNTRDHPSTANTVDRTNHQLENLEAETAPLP
# T1 sequence (Q9GZQ6 whole entry): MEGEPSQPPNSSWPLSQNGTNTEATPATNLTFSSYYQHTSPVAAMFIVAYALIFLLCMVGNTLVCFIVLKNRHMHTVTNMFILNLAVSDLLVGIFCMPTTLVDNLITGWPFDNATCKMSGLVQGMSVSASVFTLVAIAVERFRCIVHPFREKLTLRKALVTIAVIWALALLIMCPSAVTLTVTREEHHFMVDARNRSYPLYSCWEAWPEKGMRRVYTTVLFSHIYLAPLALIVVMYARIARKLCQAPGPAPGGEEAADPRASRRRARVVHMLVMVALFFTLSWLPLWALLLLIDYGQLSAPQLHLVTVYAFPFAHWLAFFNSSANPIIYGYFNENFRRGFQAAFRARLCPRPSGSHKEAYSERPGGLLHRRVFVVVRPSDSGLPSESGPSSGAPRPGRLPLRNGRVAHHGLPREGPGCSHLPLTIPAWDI
Compound,IC50 (human NPFF1R [1]),IC50 (NPFF2R [2]),EC50 (human MOPr [3]; Table 3B),Emax (human MOPr [3]),NPFF2R (cAMP) Agonist mode (NPFF2R [4]),EC50 (human MOPr [5]),Emax (human MOPr [5]),EC50 (NPFF2R [6]),Emax (NPFF2R [6]),EC50 (human NPFF1R [7]),Emax (human NPFF1R [7]),Ki (human MOPr [8]),Ki (human NPFF1R [1]),Ki (NPFF2R [2]),EC50 (human MOPr [3]; [9])
"CC[C@H](C)[C@H](NC(=O)[C@H](CCCN1CCC(Cc2ccccc2)CC1)NC(=O)CCN1Cc2ccccc2C[C@H](NC(=O)[C@@H](CCCNC(=N)N)NC(=O)[C@@H](N)Cc2c(C)cc(O)cc2C)C1=O)C(N)=O [DP0002, H-Dmt-D-Arg-Aba-β-Ala-Bpa-Ile-NH2] (H-[Dmt][dR][X1][Nva(5-(4-Bn-piperidin-1-yl))]I-NH2)",50 to 500 nM,< 50 nM,8.9 ± 2.6 nM,110%,Partial,45 nM,49%,–,–,–,–,–,–,–,–
"Cc1cc(O)cc(C)c1C[C@H](N)C(=O)N[C@H](CCCNC(=N)N)C(=O)N[C@H]1Cc2ccccc2CN(CCC(=O)N[C@@H](CCCN2CCC(Cc3ccccc3)CC2)C(=O)N[C@@H](CC(C)C)C(N)=O)C1=O [DP0003, H-Dmt-D-Arg-Aba-β-Ala-Bpa-Leu-NH2] (H-[Dmt][dR][X1][Nva(5-(4-Bn-piperidin-1-yl))]L-NH2)",50 to 500 nM,< 50 nM,20.1 ± 10 nM,70%,Partial,37 nM,38%,–,–,–,–,–,–,–,–
"Cc1cc(O)cc(C)c1C[C@H](N)C(=O)N[C@H](CCCNC(=N)N)C(=O)N[C@H]1Cc2ccccc2CN(CC(=O)N[C@@H](CCCN)C(=O)N[C@@H](Cc2ccccc2)C(N)=O)C1=O [KGFF04, H-Dmt-D-Arg-Aba-Gly-Orn-Phe-NH2]",–,–,–,70 ± 4%,–,–,–,963 ± 168 nM,67 ± 3%,> 10000 nM,25 ± 4%,0.67 ± 0.29 nM,780 ± 90 nM,45 ± 8 nM,9.5 ± 1.5 nM
"Cc1cc(O)cc(C)c1C[C@H](N)C(=O)N[C@H](CCCNC(=N)N)C(=O)N[C@H]1Cc2ccccc2CN(CCC(=O)N[C@@H](CCCN2CCC(Cc3ccccc3)CC2)C(=O)N[C@H](C(N)=O)C(C)C)C1=O [DP0001, H-Dmt-D-Arg-Aba-β-Ala-Bpa-Val-NH2] (H-[Dmt][dR][X1][Nva(5-(4-Bn-piperidin-1-yl))]V-NH2)",~500 nM,< 50 nM,16.9 ± 8.3 nM,124%,Partial,101 nM,52%,–,–,–,–,–,–,–,–
"Cc1cc(O)cc(C)c1C[C@H](N)C(=O)N[C@H](CCCNC(=N)N)C(=O)N[C@H]1Cc2ccccc2CN(CC(=O)N[C@@H](CCCNC(=N)N)C(=O)N[C@@H](Cc2ccccc2)C(N)=O)C1=O [KGFF01, H-Dmt-D-Arg-Aba-Gly-Arg-Phe-NH2]",–,–,–,101 ± 7%,–,–,–,128 ± 23 nM,95 ± 6%,155 ± 25 nM,44 ± 8%,0.59 ± 0.21 nM,57 ± 10 nM,1.2 ± 0.5 nM,2.4 ± 1 nM
"CNC(=O)[C@H](Cc1ccccc1)NC(=O)[C@@H](CCCNC(=N)N)NC(=O)[C@@H](N)Cc1c(C)cc(O)cc1C [KGFF13, H-Dmt-D-Arg-Phe-NHMe] (HELM PEPTIDE1{[Cc1cc(O)cc(C)c1C[C@H](N)C(=O)[*:2]].[dR].F.[CN[*:1]]}$$$$V2.0)",–,–,–,97 ± 2%,–,–,–,> 10000 nM,68 ± 8%,> 10000 nM,39 ± 2%,0.11 ± 0.05 nM,147 ± 16 nM,206 ± 47 nM,1 ± 0.4 nM
"Cc1cc(O)cc(C)c1C[C@H](N)C(=O)N[C@H](CCCNC(=N)N)C(=O)N[C@H]1Cc2ccccc2CN(CCC(=O)N[C@@H](CCCCNc2nc3ccccc3[nH]2)C(=O)N[C@@H](Cc2ccccc2)C(N)=O)C1=O [KGFF14, H-Dmt-D-Arg-Aba-β-Ala-Lys(Bim)-Phe-NH2] (H-[Dmt][dR][X1]K(X2)F-NH2)",–,–,–,99 ± 4%,–,–,–,89 ± 7 nM,73 ± 18%,76 ± 26 nM,74 ± 1%,1.6 ± 0.3 nM,4.54 ± 0.01 nM,4.15 ± 1.35 nM,5.9 ± 2.5 nM
"Cc1cc(O)cc(C)c1C[C@H](N)C(=O)N[C@H](CCCNC(=N)N)C(=O)N[C@H]1Cc2ccccc2CN(CCC(=O)N[C@@H](CCCCNc2nc3ccccc3s2)C(=O)N[C@@H](Cc2ccccc2)C(N)=O)C1=O [KGFF16, H-Dmt-D-Arg-Aba-β-Ala-Lys(Bth)-Phe-NH2] (H-[Dmt][dR][X1]K(X4)F-NH2)",–,–,–,93 ± 6%,–,–,–,526 ± 12 nM,88 ± 12%,273 ± 115 nM,51 ± 7%,2.6 ± 1.3 nM,80 ± 13 nM,10.4 ± 2.3 nM,6.2 ± 2 nM
"Cc1cc(O)cc(C)c1C[C@H](N)C(=O)N[C@H](CCCNC(=N)N)C(=O)N[C@H]1Cc2ccccc2CN(CCC(=O)N[C@@H](CCCCNc2nc3ccccc3o2)C(=O)N[C@@H](Cc2ccccc2)C(N)=O)C1=O [KGFF15, H-Dmt-D-Arg-Aba-β-Ala-Lys(Box)-Phe-NH2] (H-[Dmt][dR][X1]K(X3)F-NH2)",–,–,–,92 ± 13%,–,–,–,930 ± 210 nM,105 ± 15%,1020 nM,51 ± 5%,1.8 ± 0.9 nM,88 ± 8 nM,9.6 ± 0.6 nM,4.1 ± 1.7 nM
